Experimental data reported in patent US20070258941A1, “Methods and compositions for remediation of disc herniation by modifying structure” (priority 2006, published 2007).
Values joined by “and” are separate entries in the source; they are usually repeats but may differ in a detail not shown here. Identical values can stand only once.

Assays:
[1] = tested on: bovine cartilage explants; test: Distribution kinetics / permeation of FITC-labeled polylysine into cartilage explants (fluorescence of cryostat sections); type: in vitro ADME; conditions: for time for permeation to achieve maximal levels (completed): FITC-labeled polymer, cartilage explants submerged in solution
Experimental: FIG. 2 is a set of photographs of bovine cartilage explants that were incubated with FITC-labeled polylysine (15-30 kDa in size, panels F, G, H, I, and J; and 30-70 kDa in size, panels K, L, M, N, and O) or control untreated cartilage (FIG. 2 panels A, B, C, D, and E). Photographs were taken at each of time points 0.5 hour (FIG. 2, panels A, F, and K), 1.0 hour (FIG. 2, panels B, G, and L), 3 hours (FIG. 2, panels C, H, and M), 7 hours (FIG. 2, panels D, I, and N) and 12 hours (FIG. 2, panels E, J, and O).
After a predetermined time, tissue was washed, frozen, and 10 micron sections were produced using a cryostat.

[2] = tested on: rabbit lumbar intervertebral discs; test: Effect of polylysine on disc height (disc height index, DHI) after injection into rabbit lumbar discs; type: in vivo; conditions: for L2/3 DHI, Average / L2/3 DHI: injected disc L2/3; for L2/3 DHI, Average / L4/5 DHI, Average: average of six animals; for L2/3 DHI, Average / L2/3 DHI / L4/5 DHI, Average / L4/5 DHI: untreated L3/4 disc = 100; for L2/3 DHI / L4/5 DHI: individual animals 1-6; for L4/5 DHI, Average / L4/5 DHI: injected disc L4/5
Experimental: FIG. 1 is a set of bar graphs showing intervertebral disc heights in rabbits injected with 30-70 kDa polylysine at each of lumbar 2/3 and 4/5, compared with heights of control untreated lumbar discs 3/4 (100%). Disc heights were measured at each of two weeks (FIG. 1, Panel A), four weeks (FIG. 1, Panel B), and six weeks (FIG. 1, Panel C). A decrease in the DHI of approximately 20% was maintained for 6 weeks in this study.
Statistical Analyses: Statistical analyses were performed by one way ANOVA with Fisher's PLSD test as a post hoc test.
Rabbit discs (six animals) were injected with 30-70 kDa polylysine into discs L4/5 and L2/3. As controls, the L3/4 discs were untreated in each of the animals.
Disc height was measured at each of 2, 4 and 6 weeks after injection, and the normalized percentages of starting disc heights observed are shown in FIG. 1. Disc height was reduced by the treatment to about 80% of the initial values, and the decrease of 20% was maintained for the full 6-week observation period.

polylysine [shorter cationic polymer]
time for permeation to achieve maximal levels (completed) [1]: 3 to 7 h | rapidity of permeation of cartilage ([1]; compared to the longer chain length (30-70 kDa)): enhanced

polylysine [30-70 kDa polylysine]
L2/3 DHI, Average ([2]; 2 weeks after injection): 79.48% | L2/3 DHI ([2]; 2 weeks after injection): 77.13% and 68.43% and 70.29% and 91.98% and 80.01% and 89.04% | L4/5 DHI, Average ([2]; 2 weeks after injection): 78.67% | L4/5 DHI ([2]; 2 weeks after injection): 90.03% and 77.07% and 77.69% and 72.34% and 81.34% and 73.56% | L2/3 DHI, Average ([2]; 4 weeks after injection): 74.86% | L2/3 DHI ([2]; 4 weeks after injection): 79.11% and 93.42% and 80.98% and 66.08% and 63.83% and 65.74% | L4/5 DHI, Average ([2]; 4 weeks after injection): 79.65% | L4/5 DHI ([2]; 4 weeks after injection): 79.68% and 93.65% and 66.64% and 79.43% and 73.86% and 84.63% | L2/3 DHI, Average ([2]; 6 weeks after injection): 79.51% | L2/3 DHI ([2]; 6 weeks after injection): 78.77% and 93.30% and 96.63% and 65.59% and 73.66% and 69.09% | L4/5 DHI, Average ([2]; 6 weeks after injection): 81.57% | L4/5 DHI ([2]; 6 weeks after injection): 87.13% and 96.43% and 81.53% and 83.27% and 61.60% and 79.46% | disc height after treatment, of the initial values ([2]; rabbit discs L2/3 and L4/5, 2, 4 and 6 weeks after injection): about 80%

polylysine [longer polymer]
time for permeation to achieve maximal levels (completed) [1]: 7 to 12 h
